Format in all cases: biochemical
One experiment deals with Pim-1 (Homo sapiens (Human), UniProt P11309). The experiment can be described thus: Pim-1 kinase assay. Particulars: 1 mM ATP, biotin-labeled BAD peptide substrate; read-out: Pim1 IC50. In a few lines: (§1)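 Biotin-BAD peptide ([…]) phosphorylated with 1 mM ATP by 2.5 pM Pim-1 or 1.25 pM Pim-3, 1 h at 25 °C in Tris pH 7.5, MgCl2, DTT buffer. EDTA stop with anti-phospho-BAD (Ser112) antibody and AlphaScreen streptavidin donor/Protein-A acceptor beads; signal read after 1 h dark incubation.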
Chain of Pim-1 (P11309 whole entry): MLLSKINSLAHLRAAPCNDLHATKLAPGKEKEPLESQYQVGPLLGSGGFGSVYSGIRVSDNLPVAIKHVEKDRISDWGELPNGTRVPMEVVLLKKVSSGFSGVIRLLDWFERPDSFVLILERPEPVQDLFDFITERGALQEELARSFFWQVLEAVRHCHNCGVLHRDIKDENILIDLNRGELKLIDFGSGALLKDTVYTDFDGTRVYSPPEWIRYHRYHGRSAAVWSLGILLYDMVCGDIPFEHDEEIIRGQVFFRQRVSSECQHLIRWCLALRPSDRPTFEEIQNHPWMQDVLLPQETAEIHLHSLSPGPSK

The next experiment concerns the target Pim-2 (Homo sapiens (Human), UniProt Q9P1W9). In words: Pim-2 kinase assay. Particulars: 1 mM ATP, fluorescein-labeled CREBtide peptide substrate; read-out: Pim2 IC50. In a few lines: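 TR-FRET assay: 1 nM Pim-2 with 0.05 μM fluorescein-CREBtide and 1 mM ATP in Tris pH 7.5, 5 mM MgCl2, 5 mM DTT, 2 h at 25 °C. EDTA stop, then Tb-anti-pCREB Ser133 antibody for 30 min before reading.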

The next experiment deals with Pim-3 (Homo sapiens (Human), UniProt Q86V86). In words: Pim-3 kinase assay. As to conditions: 1 mM ATP, biotin-labeled BAD peptide substrate; read-out: Pim3 IC50. In a few lines: as §1

Structures are written as SMILES.

Drawing on patent US10000507B2, “Furo- and thieno-pyridine carboxamide compounds useful as pim kinase inhibitors” (Incyte Corporation, priority 2013, dated 2018), this text covers IC50 for ten compounds.

Chain of Pim-2 (Q9P1W9 whole entry): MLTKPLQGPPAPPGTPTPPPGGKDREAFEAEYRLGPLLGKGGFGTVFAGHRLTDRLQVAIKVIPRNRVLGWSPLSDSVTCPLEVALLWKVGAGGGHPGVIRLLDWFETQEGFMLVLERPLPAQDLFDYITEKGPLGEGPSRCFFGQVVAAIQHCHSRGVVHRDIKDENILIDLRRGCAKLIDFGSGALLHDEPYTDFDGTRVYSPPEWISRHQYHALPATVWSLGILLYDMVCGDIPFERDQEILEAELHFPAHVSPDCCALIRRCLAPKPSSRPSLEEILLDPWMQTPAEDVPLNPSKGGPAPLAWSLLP

Take `Nc1oc2cc(C3CCOCC3)cnc2c1C(=O)Nc1cnsc1N1C[C@@H](N)C[C@@H](C(F)(F)F)C1` [Example 91, 2-Amino-N-{5-[(3S,5R)-3-amino-5-(trifluoromethyl)piperidin-1-yl]isothiazol-4-yl}-6-(tetrahydro-2H-pyran-4-yl)furo[3,2-b]pyridine-3-carboxamide]: the results for the half-maximal inhibitory concentration (IC50) on Pim-1, on Pim-2 and on Pim-3 were ≤ 10 nM, 10 to 100 nM and ≤ 10 nM, respectively.
On to `Nc1oc2cc(CN3CC(O)C3)cnc2c1C(=O)Nc1cnccc1N1C[C@@H](N)C[C@@H](C(F)(F)F)C1` [Example 101, 2-Amino-N-{4-[(3S,5R)-3-amino-5-(trifluoromethyl)piperidin-1-yl]pyridin-3-yl}-6-[(3-hydroxyazetidin-1-yl)methyl]furo[3,2-b]pyridine-3-carboxamide], for which the IC50 at Pim-1 is ≤ 10 nM; on Pim-2, 10 to 100 nM; on Pim-3, ≤ 10 nM.
Take `C[C@@H]1C[C@H](N)CN(c2ccncc2NC(=O)c2c(N)oc3cccnc23)C1` [Example 65, 2-amino-N-{4-[(3S,5R)-3-amino-5-methyl-piperidin-1-yl]pyridin-3-yl}-furo[3,2-b]pyridine-3-carboxamide]: the IC50 on Pim-1 was ≤ 10 nM; on Pim-2, 10 to 100 nM; on Pim-3, ≤ 10 nM.
With `Nc1sc2cc(-c3c(F)cccc3F)cnc2c1C(=O)Nc1cnccc1N1CCC[C@H](N)C1` [Example 26, 2-Amino-N-{4-[(3S)-3-aminopiperidin-1-yl]pyridin-3-yl}-6-(2,6-difluorophenyl)-thieno[3,2-b]pyridine-3-carboxamide], the half-maximal inhibitory concentration (IC50) at Pim-1 is ≤ 10 nM; at Pim-2, 10 to 100 nM; on Pim-3, ≤ 10 nM.
`COc1cnc2c(C(=O)Nc3cnn(C)c3N3CCCC(N)CC3)c(N)sc2c1` (stereo not drawn) [Example 13, 2-Amino-N-[5-(4-aminoazepan-1-yl)-1-methyl-1H-pyrazol-4-yl]-6-methoxythieno[3,2-b]pyridine-3-carboxamide]: the IC50 at Pim-1 was ≤ 10 nM; on Pim-2, 10 to 100 nM; at Pim-3, ≤ 10 nM.
Turning to `Cc1cncc(NC(=O)c2c(N)oc3cccnc23)c1N1C[C@@H](N)[C@H](O)[C@@H](C)C1` [Example 76, 2-Amino-N-{5-methyl-4-[(3R,4R,5S)-3-amino-4-hydroxy-5-methylpiperidin-1-yl]pyridin-3-yl}-furo[3,2-b]pyridine-3-carboxamide], the IC50 is ≤ 10 nM on Pim-1, 100 to 1000 nM at Pim-2 and ≤ 10 nM at Pim-3.
As for `Nc1oc2cccnc2c1C(=O)Nc1cnccc1N1CCC[C@H](N)C1` [Example 45, 2-Amino-N-{4-[(3S)-3-aminopiperidin-1-yl]pyridin-3-yl}furo[3,2-b]pyridine-3-carboxamide], the values for the IC50 on Pim-1, on Pim-2 and on Pim-3 were ≤ 10 nM, 100 to 1000 nM and ≤ 10 nM, respectively.
`C[C@@H]1C[C@H](N)CN(c2ccncc2NC(=O)c2c(N)oc3cc(C4CCOC4)cnc23)C1` (stereo partly drawn) [Example 122, 2-Amino-N-(4-((3S,5R)-3-amino-5-methylpiperidin-1-yl)pyridin-3-yl)-6-(tetrahydrofuran-3-yl)furo[3,2-b]pyridine-3-carboxamide]: the IC50 on Pim-1, at Pim-2 and at Pim-3 was ≤ 10 nM throughout.
Regarding `Nc1oc2cc(F)cnc2c1C(=O)Nc1cnccc1N1C[C@@H](N)C[C@@H](C(F)(F)F)C1` [Example 63, 2-amino-N-{4-[(3S,5R)-3-amino-5-(trifluoromethyl)piperidin-1-yl]pyridin-3-yl}-6-fluorofuro[3,2-b]pyridine-3-carboxamide], the half-maximal inhibitory concentration (IC50) on Pim-1 is ≤ 10 nM; at Pim-2, 10 to 100 nM; on Pim-3, ≤ 10 nM.
With `Cc1cncc(NC(=O)c2c(N)oc3cc(Cl)cnc23)c1N1C[C@@H](N)[C@H](O)[C@@H](C)C1` [Example 78, 2-Amino-N-{5-methyl-4-[(3R,4R,5S)-3-amino-4-hydroxy-5-methylpiperidin-1-yl]pyridin-3-yl}-6-chlorofuro[3,2-b]pyridine-3-carboxamide], the IC50 at Pim-1 is ≤ 10 nM; on Pim-2 it was 10 to 100 nM; on Pim-3 it was ≤ 10 nM.
